From US8969352B2, “Substituted 2-azabicycles and their use as orexin receptor modulators” (Janssen Pharmaceutica NV, priority 2013, dated 2015) come the findings set out here.

One assay addresses human orexin 1 receptor (Homo sapiens, UniProt O43613). The assay is described as follows: Human orexin 1 receptor radioligand binding. The note with it: CHO cells stably expressing human orexin 1 receptor; competitive radioligand binding, apparent Ki; read-out: hOX1 Ki. The method, then:
(§1) Rat and Human Orexin 1 Receptor Radioligand Binding Studies
(§2) After centrifugation (2K×G, 5 min at 4° C.), the supernatant was aspirated and the pellets frozen and stored at −80° C. […] Each cell pellet from a 15 cm plate was resuspended in 10 mL, stored on ice, and homogenized for 45 sec prior to addition to the reactions. […] The final concentration of DMSO in the reactions is equal to or less than 0.1%. Total and nonspecific binding was determined in the absence and presence of 10 μM almorexant. The total volume of each reaction is 200 μL (20 μL of diluted compounds, 80 μL of [^3H]-(1-(5-(2-fluoro-phenyl)-2-methyl-thiazol-4-yl)-1-((S)-2-(5-phenyl-(1,3,4)oxadiazol-2-ylmethyl)-pyrrolidin-1-yl)-methanone) diluted in PBS and 100 μL of the cell suspension). […] The plates were washed 3 times by aspirating 30 ml PBS through the plates. Plates were dried in 55° C. oven for 60 min, scintillation fluid was added, and the radioactivity was counted on a Topcount (Packard).

The target in a further assay is rat orexin 1 receptor (Rattus norvegicus, UniProt P56718). The assay is described as follows: Rat orexin 1 receptor radioligand binding. The note with it: HEK293 cells stably expressing rat orexin 1 receptor; competitive radioligand binding, apparent Ki; read-out: rOX1 Ki. As for the experimental part: as §1, §2
A further assay addresses human orexin 2 receptor (Homo sapiens (Human), UniProt O43614). The assay is described as follows: Human orexin 2 receptor radioligand binding. Particulars: HEK293 stably expressing human orexin 2 receptor; [3H]-EMPA competitive binding, apparent Ki; read-out: hOX2 Ki. As for the experimental part: Human Orexin 2 Receptor Radioligand Binding Studies
as §2, with “sec just” for “sec”, “reactions. Competition binding experiments in 96 well polypropylene plates were performed using [^3H]-EMPA (Moraveck Corporation, specific activity=29.6 Ci/mmol), diluted to a 5 nM concentration in PBS (2 nM final concentration).” for “reactions.”, “[^3H]-EMPA” for “[^3H]-(1-(5-(2-fluoro-phenyl)-2-methyl-thiazol-4-yl)-1-((S)-2-(5-phenyl-(1,3,4)oxadiazol-2-ylmethyl)-pyrrolidin-1-yl)-methanone)”

human orexin 2 receptor, sequence (O43614 whole entry): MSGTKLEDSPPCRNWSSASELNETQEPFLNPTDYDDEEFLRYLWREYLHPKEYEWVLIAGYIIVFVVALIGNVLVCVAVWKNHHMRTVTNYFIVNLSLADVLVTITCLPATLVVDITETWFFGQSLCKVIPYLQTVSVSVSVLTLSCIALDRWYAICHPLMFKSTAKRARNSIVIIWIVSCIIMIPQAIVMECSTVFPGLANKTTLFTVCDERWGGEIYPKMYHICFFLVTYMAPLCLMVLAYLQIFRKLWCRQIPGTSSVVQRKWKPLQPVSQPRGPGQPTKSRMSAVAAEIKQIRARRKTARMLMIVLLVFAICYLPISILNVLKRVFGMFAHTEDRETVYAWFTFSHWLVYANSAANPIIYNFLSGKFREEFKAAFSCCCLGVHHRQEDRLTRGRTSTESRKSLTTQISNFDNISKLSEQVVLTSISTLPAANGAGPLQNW

For `O=C(c1ccccc1-n1nccn1)N1CC2CC(Oc3cnc(C(F)(F)F)cn3)C1C2` (racemic) [Example 1, (R/S)-(2-(2H-1,2,3-triazol-2-yl)phenyl)(6-((5-(trifluoromethyl)pyrazin-2-yl)oxy)-2-azabicyclo[2.2.1]heptan-2-yl)methanone], the results for the Ki on human orexin 1 receptor and at rat orexin 1 receptor were 0.12 µM and 0.074 µM, respectively. As for `Cc1ccc(-n2nccn2)c(C(=O)N2CC3CC(Oc4cnc(C(F)(F)F)cn4)C2C3)n1` (racemic) [Example 2, (R/S)-(6-methyl-3-(2H-1,2,3-triazol-2-yl)pyridin-2-yl)(6-((5-(trifluoromethyl)pyrazin-2-yl)oxy)-2-azabicyclo[2.2.1]heptan-2-yl)methanone], the Ki on human orexin 2 receptor was 10 µM; on human orexin 1 receptor it was 0.342 µM; on rat orexin 1 receptor, 0.2 µM.

With `CCOc1ncc2ccccc2c1C(=O)N1CC2CC(Oc3cnc(C(F)(F)F)cn3)C1C2` (racemic) [Example 3], the figures for the Ki on human orexin 2 receptor, at human orexin 1 receptor and on rat orexin 1 receptor were 8.9 µM, 0.123 µM and 0.063 µM, respectively. In the case of `Cc1cnc(C(=O)N2CC3CC(Oc4cnc(C(F)(F)F)cn4)C2C3)c(-n2nccn2)c1` (racemic) [Example 4], the Ki is above 10 µM on human orexin 2 receptor and 0.837 µM on rat orexin 1 receptor. `O=C(c1ccccc1-n1nccn1)N1CC2CC(Oc3ccc(C(F)(F)F)cn3)C1C2` (racemic) [Example 7, (R/S)-(2-(2H-1,2,3-triazol-2-yl)phenyl)(6-((5-(trifluoromethyl)pyridin-2-yl)oxy)-2-azabicyclo[2.2.1]heptan-2-yl)methanone]: the values for the Ki at human orexin 1 receptor and on rat orexin 1 receptor were 0.012 µM and 0.021 µM, respectively. As to `CCOc1ncc2ccccc2c1C(=O)N1CC2CC(Oc3ccc(C(F)(F)F)cn3)C1C2` (racemic) [Example 8, (R/S)-(3-ethoxyisoquinolin-4-yl)(6-((5-(trifluoromethyl)pyridin-2-yl)oxy)-2-azabicyclo[2.2.1]heptan-2-yl)methanone], the Ki on human orexin 2 receptor came to 1.45 µM.

Turning to `COc1cccc(-n2nccn2)c1C(=O)N1CC2CC(Oc3ccc(C(F)(F)F)cn3)C1C2` (racemic) [Example 15], the Ki on human orexin 2 receptor turned out to be 0.229 µM. As for `O=C(c1cccc(F)c1-n1nccn1)N1CC2CC(Oc3ccc(C(F)(F)F)cn3)C1C2` (racemic) [Example 16, (R/S)-(3-fluoro-2-(2H-1,2,3-triazol-2-yl)phenyl)(6-((5-(trifluoromethyl)pyridin-2-yl)oxy)-2-azabicyclo[2.2.1]heptan-2-yl)methanone], the Ki on rat orexin 1 receptor turned out to be 0.008 µM. Consider `Cc1cccc(C(=O)N2CC3CC(Oc4ccc(C(F)(F)F)cn4)C2C3)c1-n1nccn1` (racemic) [Example 17, (R/S)-(3-methyl-2-(2H-1,2,3-triazol-2-yl)phenyl)(6-((5-(trifluoromethyl)pyridin-2-yl)oxy)-2-azabicyclo[2.2.1]heptan-2-yl)methanone], for which, at human orexin 2 receptor, the Ki worked out at 0.234 µM. With `O=C(c1c(F)cccc1-n1nccn1)N1CC2CC(Oc3ccc(C(F)(F)F)cn3)C1C2` (racemic) [Example 18, (R/S)-(2-fluoro-6-(2H-1,2,3-triazol-2-yl)phenyl)(6-((5-(trifluoromethyl)pyridin-2-yl)oxy)-2-azabicyclo[2.2.1]heptan-2-yl)methanone], the Ki turned out to be 0.023 µM at human orexin 1 receptor and 0.025 µM at rat orexin 1 receptor. On to `O=C(c1ccc(F)cc1-c1ncccn1)N1CC2CC(Oc3ccc(C(F)(F)F)cn3)C1C2` (racemic) [Example 20, (R/S)-(4-fluoro-2-(pyrimidin-2-yl)phenyl)(-6-((5-(trifluoromethyl)pyridin-2-yl)oxy)-2-azabicyclo[2.2.1]heptan-2-yl)methanone], for which the Ki at human orexin 2 receptor was 2.7 µM.

Turning to `O=C(c1ccccc1-n1cnnc1)N1CC2CC(Oc3ccc(C(F)(F)F)cn3)C1C2` (racemic) [Example 21, (R/S)-(2-(4H-1,2,4-triazol-4-yl)phenyl)(6-((5-(trifluoromethyl)pyridin-2-yl)oxy)-2-azabicyclo[2.2.1]heptan-2-yl)methanone], the Ki on human orexin 2 receptor and at rat orexin 1 receptor was above 10 µM throughout. Turning to `O=C(c1ccc(F)cc1-c1ncccn1)N1C[C@H]2C[C@@H](Oc3ccc(C(F)(F)F)cn3)[C@@H]1C2` [Example 26, (4-fluoro-2-(pyrimidin-2-yl)phenyl)((1S,4R,6R)-6-((5-(trifluoromethyl)pyridin-2-yl)oxy)-2-azabicyclo[2.2.1]heptan-2-yl)methanone], the Ki on human orexin 2 receptor worked out at 2.1 µM. As for `COc1c(F)cccc1C(=O)N1C[C@H]2C[C@@H](Oc3ccc(C(F)(F)F)cn3)[C@@H]1C2` [Example 31, (3-fluoro-2-methoxyphenyl)((1S,4R,6R)-6-((5-(trifluoromethyl)pyridin-2-yl)oxy)-2-azabicyclo[2.2.1]heptan-2-yl)methanone], the Ki is above 10 µM at human orexin 2 receptor and 0.707 µM at rat orexin 1 receptor. On to `Cc1cccc(C(=O)N2C[C@H]3C[C@@H](Oc4ccc(C(F)(F)F)cn4)[C@@H]2C3)c1-c1ncco1` [Example 32, (3-methyl-2-(oxazol-2-yl)phenyl)((1S,4R,6R)-6-((5-(trifluoromethyl)pyridin-2-yl)oxy)-2-azabicyclo[2.2.1]heptan-2-yl)methanone], for which the results for the Ki at human orexin 1 receptor and on rat orexin 1 receptor were 0.004 µM and 0.003 µM, respectively.

As to `O=C(c1cccc(F)c1-n1nccn1)N1C[C@H]2C[C@@H](Oc3ccc(C(F)(F)F)cn3)[C@@H]1C2` [Example 35, (3-fluoro-2-(2H-1,2,3-triazol-2-yl)phenyl)((1S,4R,6R)-6-((5-(trifluoromethyl)pyridin-2-yl)oxy)-2-azabicyclo[2.2.1]heptan-2-yl)methanone], the Ki on rat orexin 1 receptor turned out to be 0.008 µM. Turning to `O=C(c1ccccc1-n1nccn1)N1C[C@H]2C[C@@H](Oc3ccc(C(F)(F)F)cn3)[C@@H]1C2` [Example 36, (2-(2H-1,2,3-triazol-2-yl)phenyl)((1S,4R,6R)-6-((5-(trifluoromethyl)pyridin-2-yl)oxy)-2-azabicyclo[2.2.1]heptan-2-yl)methanone], the figures for the Ki on human orexin 1 receptor and on rat orexin 1 receptor were 0.011 µM and 0.005 µM, respectively. `Cc1cnn(C)c1-c1ccccc1C(=O)N1C[C@H]2C[C@@H](Oc3ccc(C(F)(F)F)cn3)[C@@H]1C2` [Example 41, (2-(1,4-dimethyl-1H-pyrazol-5-yl)phenyl)((1S,4R,6R)-6-((5-(trifluoromethyl)pyridin-2-yl)oxy)-2-azabicyclo[2.2.1]heptan-2-yl)methanone]: the Ki on human orexin 2 receptor is above 10 µM; on rat orexin 1 receptor, 4.4 µM. In the case of `O=C(c1c(F)cccc1-n1nccn1)N1C[C@H]2C[C@@H](Oc3ccc(C(F)(F)F)cn3)[C@@H]1C2` [Example 46, (2-fluoro-6-(2H-1,2,3-triazol-2-yl)phenyl)((1S,4R,6R)-6-((5-(trifluoromethyl)pyridin-2-yl)oxy)-2-azabicyclo[2.2.1]heptan-2-yl)methanone], the Ki on human orexin 1 receptor was 0.012 µM; at rat orexin 1 receptor it was 0.01 µM.

Turning to `O=C(c1c(F)cccc1-c1ncccn1)N1C[C@H]2C[C@@H](Oc3ccc(Br)cn3)[C@@H]1C2` [Example 47, ((1S,4R,6R)-6-((5-bromopyridin-2-yl)oxy)-2-azabicyclo[2.2.1]heptan-2-yl)(2-fluoro-6-(pyrimidin-2-yl)phenyl)methanone], the values for the Ki on human orexin 1 receptor and at rat orexin 1 receptor were 0.011 µM and 0.007 µM, respectively.

`O=C(c1ccccc1-n1nccn1)N1C[C@H]2C[C@@H](Oc3ncccc3C(F)(F)F)[C@@H]1C2` [Example 51, (2-(2H-1,2,3-triazol-2-yl)phenyl)((1S,4R,6R)-6-((3-(trifluoromethyl)pyridin-2-yl)oxy)-2-azabicyclo[2.2.1]heptan-2-yl)methanone]: the Ki at human orexin 2 receptor is 0.676 µM; at rat orexin 1 receptor, 0.294 µM. In the case of `Cc1ccc(-n2nccn2)c(C(=O)N2C[C@H]3C[C@@H](Oc4ncccc4C(F)(F)F)[C@@H]2C3)n1` [Example 52, (6-methyl-3-(2H-1,2,3-triazol-2-yl)pyridin-2-yl)((1S,4R,6R)-6-((3-(trifluoromethyl)pyridin-2-yl)oxy)-2-azabicyclo[2.2.1]heptan-2-yl)methanone], the values for the Ki on human orexin 2 receptor and at rat orexin 1 receptor were 4 µM and 0.55 µM, respectively. With `O=C(c1ccccc1-n1nccn1)N1C[C@H]2C[C@@H](Nc3ccc(C(F)(F)F)cn3)[C@@H]1C2` [Example 53, (2-(2H-1,2,3-triazol-2-yl)phenyl)((1S,4S,6R)-6-((5-(trifluoromethyl)pyridin-2-yl)amino)-2-azabicyclo[2.2.1]heptan-2-yl)methanone], the Ki on human orexin 1 receptor and at rat orexin 1 receptor was 0.003 µM in each case.
